Laboratory results: US20130142882A1, “METHODS AND COMPOSITIONS FOR TREATMENT, MODIFICATION AND MANAGEMENT OF BONE CANCER PAIN” (GOLDEN BIOTECHNOLOGY CORPORATION, priority 2011, published 2013)
Values joined by “and” are separate entries in the source; they are usually repeats but may differ in a detail not shown here. Equal values may be shown once.

System: rat model of bone cancer pain (Walker 256 rat mammary gland carcinoma cells injected into the right tibia)
Test: Mechanical allodynia (Von Frey test) in a rat model of bone cancer pain
Assay type: in vivo, Rat (Sprague-Dawley)
Procedure: The objective of this study was to assess the potential anti-nociceptive and anti-tumourigenic effects of Compound 1, at doses of 15, 30 and 45 mg/kg, in an animal model of bone cancer pain. Metastasis of cancer cells to the bone was modeled by injecting Walker 256 rat mammary gland carcinoma cells into the medullary cavity of the right tibia (Mao-Yinga, et al. A rat model of bone cancer pain induced by intra-tibia inoculation of Walker 256 mammary gland carcinoma cells. Biochem Biophys Res Commun 2006; 345: 1292-1298). The development of mechanical allodynia was monitored using an established behavioural test (Von Frey test). Treatment administration was chronic, from the day of surgery, and administered twice daily for 21 days to determine whether there was a prophylactic effect on the development of mechanical allodynia. Zoledronic acid was used as a reference substance. No regulatory test guidelines were applicable to this study.
Rats have been studied in this model of bone cancer pain. The route of administration of Compound 1 and vehicle was oral. The doses of Compound 1 were 15, 30 and 45 mg/kg, twice a day (approximately 10 h apart) for 21 days.
The dose of zoledronic acid was 30 μg/kg, as a single administration, every second day from the day of surgery, based on historical data. The route of administration of zoledronic acid was subcutaneous.
The dose volume for test substance and vehicle treatments was 5 mL/kg. The vehicle for Compound 1 was corn oil. Each rat allocated to test substance or vehicle treatments received an oral dose, by gavage, twice daily (approximately 8 am and 6 pm) for 21 consecutive days. The dose volume for the reference substance treatment was 1 mL/kg. Each rat allocated to reference substance treatment received a single subcutaneous dose, by injection (approximately 8 am) every second day from the day of surgery.
Cell preparation. Walker 256 rat mammary gland carcinoma cells (obtained from the American Type Culture Collection (ATCC)) were harvested from sub-confluent cultures growing in vitro and the number of viable cells determined. Cells were then re-suspended in sterile phosphate buffered saline (PBS) at a concentration of 4×10^5 cells. Female Sprague-Dawley rats were intratibially injected in the right leg with 4×10^5 Walker 256 rat mammary gland carcinoma cells in a volume of 6 μL as detailed in Surgical procedure below.
Baseline behavioural testing. The rats were moved to the procedure room 5 days prior to behavioural testing. The rats were then housed, dosed and observed in the procedure room. The behavioural test was performed on all rats on 2 separate occasions prior to surgery, to establish baseline values. Pre-surgery baseline values were taken as the data from the final (second) day of testing (the data from the first day of testing was not included but classed as part of the acclimatisation).
Mechanical allodynia (Von Frey test): Each animal was placed in a wire mesh cage and a series of Von Frey filaments were applied to the plantar surface of the hind paw, from below. The filaments were applied in ascending order (starting with the weakest force), and the withdrawal threshold for both the left and right hind paws were evaluated. Each filament was indented on the mid-plantar surface of the foot to the point where it just started to bend; this was repeated approximately 8 to 10 times per filament at a frequency of approximately 1 Hz. The withdrawal threshold was defined as the lowest force of two or more consecutive Von Frey filaments to elicit a reflex withdrawal response (i.e. a brief paw flick).
Surgical procedure. The animals were surgically prepared over 2 days. Each rat was anaesthetised as necessary with isofluorane in […]. The surface around the incision site was shaved and sterilised. Under aseptic conditions, an incision was made in the skin over the top of the right tibia to expose the tibia head with minimal damage. […]

[1] = 15 mg/kg p.o. twice daily, Day 6, left paw
[2] = 15 mg/kg p.o. twice daily, Day 6, right paw
[3] = 15 mg/kg p.o. twice daily, Day 12, left paw
[4] = 15 mg/kg p.o. twice daily, Day 12, right paw
[5] = 15 mg/kg p.o. twice daily, Day 14, left paw
[6] = 15 mg/kg p.o. twice daily, Day 14, right paw
[7] = 15 mg/kg p.o. twice daily, Day 19, left paw
[8] = 15 mg/kg p.o. twice daily, Day 19, right paw
[9] = 15 mg/kg p.o. twice daily, Day 21, left paw
[10] = 15 mg/kg p.o. twice daily, Day 21, right paw
[11] = 15 mg/kg p.o. twice daily, Pre-Surgery, left paw
[12] = 15 mg/kg p.o. twice daily, Pre-Surgery, right paw
[13] = 30 mg/kg p.o. twice daily, Day 6, left paw
[14] = 30 mg/kg p.o. twice daily, Day 6, right paw
[15] = 30 mg/kg p.o. twice daily, Day 12, left paw
[16] = 30 mg/kg p.o. twice daily, Day 12, right paw
[17] = 30 mg/kg p.o. twice daily, Day 14, left paw
[18] = 30 mg/kg p.o. twice daily, Day 14, right paw
[19] = 30 mg/kg p.o. twice daily, Day 19, left paw
[20] = 30 mg/kg p.o. twice daily, Day 19, right paw
[21] = 30 mg/kg p.o. twice daily, Day 21, left paw
[22] = 30 mg/kg p.o. twice daily, Day 21, right paw
[23] = 30 mg/kg p.o. twice daily, Pre-Surgery, left paw
[24] = 30 mg/kg p.o. twice daily, Pre-Surgery, right paw
[25] = 45 mg/kg p.o. twice daily, Day 6, left paw
[26] = 45 mg/kg p.o. twice daily, Day 6, right paw
[27] = 45 mg/kg p.o. twice daily, Day 12, left paw
[28] = 45 mg/kg p.o. twice daily, Day 12, right paw
[29] = 45 mg/kg p.o. twice daily, Day 14, left paw
[30] = 45 mg/kg p.o. twice daily, Day 14, right paw
[31] = 45 mg/kg p.o. twice daily, Day 19, left paw
[32] = 45 mg/kg p.o. twice daily, Day 19, right paw
[33] = 45 mg/kg p.o. twice daily, Day 21, left paw
[34] = 45 mg/kg p.o. twice daily, Day 21, right paw
[35] = 45 mg/kg p.o. twice daily, Pre-Surgery, left paw
[36] = 45 mg/kg p.o. twice daily, Pre-Surgery, right paw

SMILES: COC1=C(OC)C(O)C(C/C=C(\C)CC/C=C(\C)CCC=C(C)C)C(C)C1=O (stereo not drawn) [Compound 1, 4-hydroxy-2,3-dimethoxy-6-methyl-5-(3,7,11-trimethyldodeca-2,6,10-trienyl)cyclohex-2-enone]
- Withdrawal Threshold (Log 10 (force (g) × 10 000)) on Day Post-Operative [1]: 5.33 Log 10 (force (g) × 10 000)
- Withdrawal threshold (g) on day post-operative [1]: 21.65 g
- Withdrawal Threshold (Log 10 (force (g) × 10 000)) on Day Post-Operative [2]: 5.31 Log 10 (force (g) × 10 000)
- Withdrawal threshold (g) on day post-operative [2]: 20.81 g
- Withdrawal Threshold (Log 10 (force (g) × 10 000)) on Day Post-Operative [3]: 5.19 Log 10 (force (g) × 10 000)
- Withdrawal threshold (g) on day post-operative [3]: 16.27 g
- Withdrawal Threshold (Log 10 (force (g) × 10 000)) on Day Post-Operative [4]: 4.99 Log 10 (force (g) × 10 000)
- Withdrawal threshold (g) on day post-operative [4]: 11.12 g
- Withdrawal Threshold (Log 10 (force (g) × 10 000)) on Day Post-Operative [5]: 5.18 Log 10 (force (g) × 10 000)
- Withdrawal threshold (g) on day post-operative [5]: 16.61 g
- Withdrawal Threshold (Log 10 (force (g) × 10 000)) on Day Post-Operative [6]: 4.91 Log 10 (force (g) × 10 000)
- Withdrawal threshold (g) on day post-operative [6]: 9.97 g
- Withdrawal Threshold (Log 10 (force (g) × 10 000)) on Day Post-Operative [7]: 5.08 Log 10 (force (g) × 10 000)
- Withdrawal threshold (g) on day post-operative [7]: 13.83 g
- Withdrawal Threshold (Log 10 (force (g) × 10 000)) on Day Post-Operative [8]: 4.76 Log 10 (force (g) × 10 000)
- Withdrawal threshold (g) on day post-operative [8]: 8.36 g
- Withdrawal Threshold (Log 10 (force (g) × 10 000)) on Day Post-Operative [9]: 5.06 Log 10 (force (g) × 10 000)
- Withdrawal threshold (g) on day post-operative [9]: 13.74 ± 2.42 g and 13.74 g
- Withdrawal Threshold (Log 10 (force (g) × 10 000)) on Day Post-Operative [10]: 4.80 Log 10 (force (g) × 10 000)
- Withdrawal threshold (g) on day post-operative [10]: 7.82 ± 1.43 g and 7.82 g
- Withdrawal Threshold (Log 10 (force (g) × 10 000)) on Day Post-Operative [11]: 5.33 Log 10 (force (g) × 10 000)
- Withdrawal threshold (g) on day post-operative [11]: 21.79 g
- Withdrawal Threshold (Log 10 (force (g) × 10 000)) on Day Post-Operative [12]: 5.33 Log 10 (force (g) × 10 000)
- Withdrawal threshold (g) on day post-operative [12]: 21.79 g
- Withdrawal Threshold (Log 10 (force (g) × 10 000)) on Day Post-Operative [13]: 5.35 Log 10 (force (g) × 10 000)
- Withdrawal threshold (g) on day post-operative [13]: 22.55 g
- Withdrawal Threshold (Log 10 (force (g) × 10 000)) on Day Post-Operative [14]: 5.32 Log 10 (force (g) × 10 000)
- Withdrawal threshold (g) on day post-operative [14]: 21.02 g
- Withdrawal Threshold (Log 10 (force (g) × 10 000)) on Day Post-Operative [15]: 5.24 Log 10 (force (g) × 10 000)
- Withdrawal threshold (g) on day post-operative [15]: 18.34 g
- Withdrawal Threshold (Log 10 (force (g) × 10 000)) on Day Post-Operative [16]: 5.00 Log 10 (force (g) × 10 000)
- Withdrawal threshold (g) on day post-operative [16]: 11.15 g
- Withdrawal Threshold (Log 10 (force (g) × 10 000)) on Day Post-Operative [17]: 5.16 Log 10 (force (g) × 10 000)
- Withdrawal threshold (g) on day post-operative [17]: 15.71 g
- Withdrawal Threshold (Log 10 (force (g) × 10 000)) on Day Post-Operative [18]: 4.86 Log 10 (force (g) × 10 000)
- Withdrawal threshold (g) on day post-operative [18]: 8.55 g
- Withdrawal Threshold (Log 10 (force (g) × 10 000)) on Day Post-Operative [19]: 5.12 Log 10 (force (g) × 10 000)
- Withdrawal threshold (g) on day post-operative [19]: 14.04 g
- Withdrawal Threshold (Log 10 (force (g) × 10 000)) on Day Post-Operative [20]: 4.91 Log 10 (force (g) × 10 000)
- Withdrawal threshold (g) on day post-operative [20]: 9.07 g
- Withdrawal Threshold (Log 10 (force (g) × 10 000)) on Day Post-Operative [21]: 5.05 Log 10 (force (g) × 10 000)
- Withdrawal threshold (g) on day post-operative [21]: 11.40 ± 0.81 g and 11.40 g
- Withdrawal Threshold (Log 10 (force (g) × 10 000)) on Day Post-Operative [22]: 4.82 Log 10 (force (g) × 10 000)
- Withdrawal threshold (g) on day post-operative [22]: 8.15 ± 1.43 g and 8.15 g
- Withdrawal Threshold (Log 10 (force (g) × 10 000)) on Day Post-Operative [23]: 5.33 Log 10 (force (g) × 10 000)
- Withdrawal threshold (g) on day post-operative [23]: 21.79 g
- Withdrawal Threshold (Log 10 (force (g) × 10 000)) on Day Post-Operative [24]: 5.33 Log 10 (force (g) × 10 000)
- Withdrawal threshold (g) on day post-operative [24]: 21.79 g
- Withdrawal Threshold (Log 10 (force (g) × 10 000)) on Day Post-Operative [25]: 5.35 Log 10 (force (g) × 10 000)
- Withdrawal threshold (g) on day post-operative [25]: 22.55 g
- Withdrawal Threshold (Log 10 (force (g) × 10 000)) on Day Post-Operative [26]: 5.35 Log 10 (force (g) × 10 000)
- Withdrawal threshold (g) on day post-operative [26]: 22.55 g
- Withdrawal Threshold (Log 10 (force (g) × 10 000)) on Day Post-Operative [27]: 5.31 Log 10 (force (g) × 10 000)
- Withdrawal threshold (g) on day post-operative [27]: 20.81 g
- Withdrawal Threshold (Log 10 (force (g) × 10 000)) on Day Post-Operative [28]: 5.16 Log 10 (force (g) × 10 000)
- Withdrawal threshold (g) on day post-operative [28]: 15.98 g
- Withdrawal Threshold (Log 10 (force (g) × 10 000)) on Day Post-Operative [29]: 5.35 Log 10 (force (g) × 10 000)
- Withdrawal threshold (g) on day post-operative [29]: 22.48 g
- Withdrawal Threshold (Log 10 (force (g) × 10 000)) on Day Post-Operative [30]: 5.30 Log 10 (force (g) × 10 000)
- Withdrawal threshold (g) on day post-operative [30]: 20.41 g
- Withdrawal Threshold (Log 10 (force (g) × 10 000)) on Day Post-Operative [31]: 5.29 Log 10 (force (g) × 10 000)
- Withdrawal threshold (g) on day post-operative [31]: 20.12 g
- Withdrawal Threshold (Log 10 (force (g) × 10 000)) on Day Post-Operative [32]: 5.24 Log 10 (force (g) × 10 000)
- Withdrawal threshold (g) on day post-operative [32]: 18.58 g
- Withdrawal Threshold (Log 10 (force (g) × 10 000)) on Day Post-Operative [33]: 5.29 Log 10 (force (g) × 10 000)
- Withdrawal threshold (g) on day post-operative [33]: 20.12 ± 1.67 g and 20.12 g
- Withdrawal Threshold (Log 10 (force (g) × 10 000)) on Day Post-Operative [34]: 5.25 Log 10 (force (g) × 10 000)
- Withdrawal threshold (g) on day post-operative [34]: 19.06 ± 2.17 g and 19.06 g
- Withdrawal Threshold (Log 10 (force (g) × 10 000)) on Day Post-Operative [35]: 5.33 Log 10 (force (g) × 10 000)
- Withdrawal threshold (g) on day post-operative [35]: 21.79 g
- Withdrawal Threshold (Log 10 (force (g) × 10 000)) on Day Post-Operative [36]: 5.33 Log 10 (force (g) × 10 000)
- Withdrawal threshold (g) on day post-operative [36]: 21.79 g
